Assay results reported in US6335368B1, “Use of alverine for reducing wrinkles” (Societe L'Oreal S.A., priority 1999, dated 2002).
Where two headings read alike, the source gives them in different places.

Test system: phrenic nerve/diaphragm isolated from rat (striated muscle)
Assay: Nerve/muscle junction (motor plate) model: isolated rat phrenic nerve/diaphragm preparation
Assay type: cell-based
Details: for inhibition at 100 µM: Rattus norvegicus
Description: Activity of Alverine in a model of nerve/muscle junction (motor plate) measured in a preparation of phrenic nerve/diaphragm isolated from rat (striated muscle) (Pollard B. J. et al, Br. J. Anaesth., 1988, 61, 419-424). The phrenic nerve and the diaphragm are carefully isolated and placed in a 50 ml tank filled with survival fluid (Krebs-Henseleit fluid) maintained at a temperature of 37° C. and oxygenated using an oxygen/CO2 mixture (95/5). The variations in tension of the diaphragm are recorded with an initial preload of several grams. After a relaxation period of 30 min., the diaphragm is stimulated indirectly via the phrenic nerve. On each preparation, the effect of the test products was evaluated in a first stage as regards the contractions induced by indirect stimulation via stimulation of the phrenic nerve (0.1 to 0.5 volts, 0.3 ms, 0.1 Hz) at increasing and cumulative concentrations from 10^−9 M to 10^−4 M. In the event of an effect at the end of the test, the diaphragm is stimulated directly in order to determine whether or not the inhibition of the neurotransmission results from a pre-junctional blockage or a post-junctional blockage.

In the case of `CCN(CCCc1ccccc1)CCCc1ccccc1` [Alverine, di(phenylpropyl)ethylamine], the “inhibition of contractions induced by the indirect stimulations” value (10^−4 M) is reported as “completely inhibits”, the inhibition at 100 µM (10^−4 M Alverine, contractions induced by indirect stimulation via phrenic nerve, 1st study, read-out: % of inhibition, indirect stimulation) is reported as 100% and the inhibition at 100 µM (10^−4 M Alverine, contractions induced by indirect stimulation via phrenic nerve, 2nd study, read-out: % of inhibition, indirect stimulation) is reported as 100%. For the same compound, the inhibition at 100 µM (10^−4 M Alverine, direct stimulation of the diaphragm, 1st study, read-out: % of inhibition, direct stimulation) was 61.4%, the inhibition at 100 µM (10^−4 M Alverine, direct stimulation of the diaphragm, 2nd study, read-out: % of inhibition, direct stimulation) was 42.2% and the inhibition at 100 µM (10^−4 M, read-out: inhibition of contractions induced by the direct stimulations) was about 50%.
